# Measurements reported in the supplement of paper PMC10307832.
# Columns and labels:
# Experiment in all cases: relative viability (nuclei count vs DMSO), 5 days (fraction); higher = more cells survive
# [1] = compound: C1COCCN1C2=NC(=NC3=C2OC4=C3C=CC=N4)C5=CC(=CC=C5)NC(=O)C6=CN=C(C=C6)N + CCNC(=O)c1noc(-c2cc(C(C)C)c(O)cc2O)c1-c1ccc(CN2CCOCC2)cc1 [Luminespib] (partner 0.01 µM)
# In short: (§1)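 Lung cancer cell lines were pin-tool dosed in 1536-well plates on the day after seeding, with either a lone drug or a fixed anchor-drug dose plus five library-drug doses (not always all listed) in √10 steps. Nuclei were counted on 4× images after 5 days. Relative viability is the ratio of treated-well to vehicle-well nuclei counts, with each value a median of duplicate plates.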
# [2] = compound: CN1CCC(CNc2ccc3ncc(-c4cccc(OC(F)(F)F)c4)n3n2)CC1 [SGI-1776] + O=C(CCCCCCC(=O)Nc1ccccc1)NO [Vorinostat] (partner 1 µM)
# In short: as §1
# [3] = compound: Nc1ccccc1NC(=O)c1ccc(CNC(=O)OCc2cccnc2)cc1 [Entinostat] + CS(=O)(=O)N1CCN(Cc2cc3nc(-c4cccc5[nH]ncc45)nc(N4CCOCC4)c3s2)CC1 [Pictilisib] (partner 1 µM)
# In short: as §1
# [4] = compound: Nc1ccccc1NC(=O)c1ccc(CNC(=O)OCc2cccnc2)cc1 [Entinostat] + O=C(CCCCCCC(=O)Nc1ccccc1)NO [Vorinostat] (partner 1 µM)
# In short: as §1
Cell Line,relative viability ([1]; first compound 0.02 µM),relative viability ([1]; first compound 0.06325 µM),relative viability ([1]; first compound 0.2 µM),relative viability ([1]; first compound 0.6325 µM),relative viability ([1]; first compound 2 µM),relative viability ([2]; first compound 0.08 µM),relative viability ([2]; first compound 0.8 µM),relative viability ([2]; first compound 2.53 µM),relative viability ([2]; first compound 8 µM),relative viability ([3]; first compound 0.02 µM),relative viability ([3]; first compound 0.06325 µM),relative viability ([3]; first compound 0.2 µM),relative viability ([3]; first compound 0.6325 µM),relative viability ([3]; first compound 2 µM),relative viability ([4]; first compound 0.02 µM),relative viability ([4]; first compound 0.06325 µM),relative viability ([4]; first compound 0.2 µM),relative viability ([4]; first compound 0.6325 µM),relative viability ([4]; first compound 2 µM)
201T,1.13,1,1.05,0.985,0.827,0.977,1.01,0.98,0.946,0.708,0.662,0.625,0.532,0.467,0.995,1.07,0.95,0.691,0.491
A549,–,–,–,–,–,–,–,–,–,0.551,0.555,0.451,0.364,0.2,–,–,–,–,–
A-427,0.812,0.951,0.982,0.872,0.544,0.861,0.9,0.882,0.815,0.67,0.837,0.65,0.757,0.589,0.87,0.875,0.864,0.781,0.617
ABC-1,0.383,1.28,0.473,0.739,0.475,1.02,1.14,1.01,0.702,0.668,1.07,0.7,0.452,0.279,1.34,1.35,0.854,0.759,0.511
BEN,0.479,0.312,0.313,0.328,0.42,0.643,0.618,0.584,0.543,0.594,0.673,0.453,0.282,0.188,0.632,0.571,0.553,0.459,0.384
CAL-12T,0.465,0.602,0.21,0.418,0.267,0.794,0.876,0.723,0.699,0.537,0.546,0.544,0.303,0.323,0.606,0.892,0.734,0.52,0.423
COR-L23,0.761,0.99,0.89,0.667,0.467,0.581,0.387,0.41,0.327,0.714,0.728,0.588,0.257,0.141,0.368,0.503,0.423,0.208,0.238
COR-L 105,0.975,0.682,0.677,0.674,0.472,0.921,0.885,0.935,0.642,0.414,0.425,0.38,0.346,0.262,0.993,0.986,0.851,0.541,0.356
Calu-6,–,–,–,–,–,–,–,–,–,0.814,0.934,0.864,0.615,0.383,–,–,–,–,–
ChaGo-K-1,0.635,0.582,0.513,0.526,0.518,0.788,0.825,0.797,0.73,0.917,0.645,0.68,0.411,0.471,0.765,0.763,0.768,0.626,0.464
EBC-1,–,–,–,–,–,–,–,–,–,0.313,0.363,0.193,0.12,0.0976,–,–,–,–,–
EKVX,0.885,0.859,0.723,0.755,0.664,0.854,0.778,0.717,0.829,0.441,0.517,0.36,0.298,0.217,0.801,0.654,0.65,0.467,0.42
EMC-BAC-2,1.25,1.32,1.08,1.03,0.648,0.551,0.593,0.424,0.298,0.579,0.595,0.628,0.352,0.289,0.969,0.433,0.6,0.331,0.218
EPLC-272H,0.242,0.588,0.401,0.271,0.33,0.468,0.505,0.545,0.249,0.419,0.37,0.327,0.219,0.254,0.483,0.397,0.33,0.236,0.139
H3255,0.79,0.851,0.689,1.03,0.9,0.904,0.919,0.815,0.718,0.475,0.395,0.301,0.202,0.168,0.902,0.303,0.65,0.483,0.37
HARA,0.562,0.762,0.843,0.79,0.335,0.497,0.515,0.559,0.438,0.428,0.533,0.442,0.368,0.219,0.541,0.482,0.329,0.324,0.182
HCC-15,0.33,0.251,0.292,0.234,0.242,0.856,0.853,0.726,0.722,0.714,0.663,0.626,0.188,0.266,0.81,0.807,0.636,0.51,0.266
HCC-44,0.99,1.17,1.05,1.22,0.687,1.16,1.05,1.12,1.01,0.641,0.644,0.392,0.176,0.417,1.08,0.976,0.938,0.879,0.653

Cell Line,relative viability ([1]; first compound 0.02 µM),relative viability ([1]; first compound 0.06325 µM),relative viability ([1]; first compound 0.2 µM),relative viability ([1]; first compound 0.6325 µM),relative viability ([1]; first compound 2 µM),relative viability ([2]; first compound 0.08 µM),relative viability ([2]; first compound 0.8 µM),relative viability ([2]; first compound 2.53 µM),relative viability ([2]; first compound 8 µM),relative viability ([3]; first compound 0.02 µM),relative viability ([3]; first compound 0.06325 µM),relative viability ([3]; first compound 0.2 µM),relative viability ([3]; first compound 0.6325 µM),relative viability ([3]; first compound 2 µM),relative viability ([4]; first compound 0.02 µM),relative viability ([4]; first compound 0.06325 µM),relative viability ([4]; first compound 0.2 µM),relative viability ([4]; first compound 0.6325 µM),relative viability ([4]; first compound 2 µM)
HCC-78,–,–,–,–,–,0.456,0.44,0.501,0.339,0.212,0.194,0.178,0.108,0.128,0.44,0.435,0.441,0.33,0.281
HCC-366,–,–,–,–,–,0.462,0.418,0.392,0.266,0.163,0.232,0.168,0.194,0.082,0.338,0.239,0.209,0.0651,0.0386
HCC-827,0.634,0.557,0.65,0.586,0.456,0.865,0.908,0.858,0.806,1.02,0.774,0.683,0.754,0.478,0.988,0.879,0.631,0.62,0.287
HOP-62,0.882,0.983,0.833,0.863,0.44,0.765,0.67,0.648,0.544,0.578,0.743,0.603,0.139,0.0745,0.565,0.534,0.494,0.228,0.132
IA-LM,–,–,–,–,–,0.956,0.914,0.922,0.926,0.391,0.43,0.508,0.311,0.133,0.972,0.997,1.13,0.863,0.682
LC-2-ad,0.857,1.08,1.02,1.06,0.872,0.676,0.709,0.663,0.66,0.44,0.5,0.431,0.126,0.124,0.666,0.686,0.695,0.356,0.257
LCLC-97TM1,0.787,0.908,0.739,0.826,0.566,0.777,0.842,0.79,0.727,0.196,0.193,0.166,0.104,0.122,0.65,0.742,0.588,0.398,0.161
LCLC-103H,0.99,1.04,0.89,1.1,0.461,0.839,0.862,0.832,0.652,0.611,0.603,0.636,0.452,0.479,0.804,0.806,0.703,0.482,0.447
NCI-H522,0.993,1.23,1.13,0.986,0.719,0.92,0.896,0.903,0.858,–,–,–,–,–,0.794,0.944,0.863,0.741,0.428
NCI-H1299,–,–,–,–,–,–,–,–,–,0.793,0.848,0.63,0.532,0.394,–,–,–,–,–
NCI-H1563,0.492,0.516,0.542,0.474,0.48,–,–,–,–,0.721,0.639,0.617,0.684,0.646,–,–,–,–,–
NCI-H1623,0.486,0.503,0.461,0.439,0.835,–,–,–,–,–,–,–,–,–,–,–,–,–,–
NCI-H1648,–,–,–,–,–,0.476,0.555,0.294,0.39,–,–,–,–,–,0.65,0.336,0.345,0.342,0.208
NCI-H1703,–,–,–,–,–,–,–,–,–,0.263,0.274,0.314,0.384,0.304,–,–,–,–,–
NCI-H1792,0.286,0.487,0.405,0.286,0.331,–,–,–,–,0.245,0.239,0.164,0.0977,0.0839,–,–,–,–,–
NCI-H2342,0.746,0.768,0.719,0.665,0.596,0.78,0.723,0.707,0.799,–,–,–,–,–,0.855,0.859,0.709,0.772,0.691
SW 900,0.203,0.166,0.172,0.152,0.174,0.506,0.752,0.651,0.361,–,–,–,–,–,0.634,0.485,0.476,0.376,0.264
